Among the data in US20100063047A1 (KALYPSYS, INC., priority 2008, published 2010) are EC50 values, retold here.

The structures appear in SMILES notation.

For one experiment, the target named is T1, human H4 (Homo sapiens, UniProt Q9H3N8).
T1 construct: host or cells: CHO-K1, also expressing mitochondrion-targeted aequorin and human Gα16
The experiment is described as follows: In vitro histamine H4 receptor cell-based aequorin bioluminescence antagonist assay. Conditions: CHO-K1 cells expressing human H4, aequorin and Gα16; histamine at EC80. The procedure:
In vitro Histamine Receptor Cell-Based Assays
The cell-based assays utilize an aequorin dependent bioluminescence signal. Doubly-transfected, stable CHO—K1 cell lines expressing human H1 or H4, mitochondrion-targeted aequorin, and (H4 only) human G protein Gα16 are obtained from Perkin-Elmer. Cells are maintained in F12 (Ham's) growth medium, containing 10% (vol./vol.) fetal bovine serum, penicillin (100 IU/mL), streptomycin (0.1 mg/mL), zeocin (0.25 mg/mL) and geneticin (0.40 mg/mL). Cell media components are from Invitrogen, Inc. One day prior to assay, the growth medium is replaced with the same, excluding zeocin and geneticin.
For assay preparation, growth medium is aspirated, and cells are rinsed with calcium-free, magnesium-free phosphate-buffered saline, followed by two to three minute incubation in Versene (Invitrogen, Inc.) at 37° C. Assay medium (DMEM:F12 [50:50], phenol-red free, containing 1 mg/mL protease-free bovine serum albumin) is added to collect the released cells, which are then centrifuged. The cell pellet is re-suspended in assay medium, centrifuged once more, and re-suspended in assay medium to a final density of 5×10^6 cells/mL. Coelenterazine-h dye (500 μM in ethanol) is added to a final concentration of 5 μM, and mixed immediately. The conical tube containing the cells is then wrapped with foil to protect the light-sensitive dye. The cells are incubated for four hours further at room temperature (approximately 21° C.) with end-over-end rotation to keep them in suspension.
Just before assay, the dye-loaded cells are diluted to 0.75×10^6 cells/mL (H1 receptor) or 1.5×10^6 cells/mL (H4 receptor) with additional assay medium. Cells are dispensed to 1536 well micro-titer plates at 3 μL/well. To assay receptor antagonism, 60 nl of 100× concentration test compounds in 100% dimethyl sulfoxide (DMSO) are dispensed to the wells, one compound per well, by passive pin transfer, and the plates are incubated for 15 minutes at room temperature. […] The pipette dispenses 3 μL/well of agonist (histamine, at twice the final concentration, where final concentration is a previously determined EC80) in assay medium, with concurrent bioluminescence detection. Agonist activity of test compounds is excluded by separate assays that measure response to test compounds immediately, without added histamine agonist.
CCD image capture on the Lumilux includes a 5 second baseline read prior to agonist addition, and generally a 40 second read per plate after agonist addition. A decrease in bioluminescence signal (measured either as area-under-the-curve, or maximum signal amplitude minus minimum signal amplitude) correlates with receptor antagonism in a dose dependent manner. The negative control is DMSO lacking any test compound. For antagonist assays, the positive controls are diphenhydramine (2-Diphenylmethoxy-N,N-dimethylethylamine, 10 μM final concentration, H1 receptor) or JNJ7777120 (1-[(5-Chloro-1H-indol-2-yl)carbonyl]-4-methyl-piperazine, 10 μM final concentration, H4 receptor). Efficacy is measured as a percentage of positive control activity.

The target of another experiment is T2, human H1 (Homo sapiens, UniProt P35367).
T2 construct: host or cells: CHO-K1, also expressing mitochondrion-targeted aequorin
T2 sequence (P35367 whole entry): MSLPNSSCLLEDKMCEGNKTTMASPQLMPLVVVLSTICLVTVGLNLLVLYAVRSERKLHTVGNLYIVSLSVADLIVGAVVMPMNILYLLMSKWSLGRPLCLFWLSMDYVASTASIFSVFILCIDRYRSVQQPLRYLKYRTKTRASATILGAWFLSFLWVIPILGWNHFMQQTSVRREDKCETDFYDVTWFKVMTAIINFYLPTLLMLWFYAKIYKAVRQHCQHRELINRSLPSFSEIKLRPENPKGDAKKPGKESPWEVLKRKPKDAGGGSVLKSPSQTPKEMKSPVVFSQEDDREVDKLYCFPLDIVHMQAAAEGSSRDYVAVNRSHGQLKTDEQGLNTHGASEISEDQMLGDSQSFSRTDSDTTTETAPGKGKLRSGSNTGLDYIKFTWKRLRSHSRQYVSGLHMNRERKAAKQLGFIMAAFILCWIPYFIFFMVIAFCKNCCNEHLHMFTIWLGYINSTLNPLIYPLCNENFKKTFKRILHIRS
The experiment in a line: In vitro histamine H1 receptor cell-based aequorin bioluminescence antagonist assay. Conditions: CHO-K1 cells expressing human H1 and aequorin; histamine at EC80; read-out: H1 Antagonist EC50. The method, boiled down: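 CHO-K1 cells stably expressing human H1 or H4 plus mitochondrial aequorin (H4 also with Gα16), loaded with 5 μM coelenterazine-h for 4 h at ~21 °C. Compounds preincubated 15 min at room temperature, then histamine at EC80 added.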

T1 sequence (Q9H3N8 whole entry): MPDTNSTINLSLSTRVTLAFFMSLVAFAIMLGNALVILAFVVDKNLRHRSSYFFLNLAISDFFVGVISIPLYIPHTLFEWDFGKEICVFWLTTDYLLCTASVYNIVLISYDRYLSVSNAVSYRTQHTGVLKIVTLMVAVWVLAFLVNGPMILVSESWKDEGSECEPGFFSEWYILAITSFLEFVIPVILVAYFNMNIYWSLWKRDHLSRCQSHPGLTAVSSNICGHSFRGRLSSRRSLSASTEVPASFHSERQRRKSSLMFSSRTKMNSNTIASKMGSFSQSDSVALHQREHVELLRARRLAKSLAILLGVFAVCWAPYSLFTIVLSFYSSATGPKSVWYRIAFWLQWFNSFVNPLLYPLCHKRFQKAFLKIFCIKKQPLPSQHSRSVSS

One may read the EC50 as the midpoint of the concentration-response curve. In the case of `Cc1csc2ncnc(N3CCN(c4ccc(C(F)(F)F)cn4)CC3)c12` [Example 2, 5-methyl-4-(4-(5-(trifluoromethyl)pyridin-2-yl)piperazin-1-yl)thieno[2,3-d]pyrimidine], the EC50 at human H4 and at human H1 was above 10 µM throughout.

As for `Cc1csc2ncnc(N3CCN(c4ccccc4Cl)CC3)c12` [Example 3, 4-(4-(2-chlorophenyl)piperazin-1-yl)-5-methylthieno[2,3-d]pyrimidine], the EC50 on human H4 and on human H1 was above 10 µM each time.

For the compound `COc1ccc(N2CCN(c3ncnc4scc(C)c34)CC2)cc1OC` [Example 4, 4-(4-(3,4-dimethoxyphenyl)piperazin-1-yl)-5-methylthieno[2,3-d]pyrimidine], the EC50 on human H4 and on human H1 was above 10 µM each time.

The compound `c1ccc(CN2CCN(c3ncnc4sc5c(c34)CCCC5)CC2)cc1` [Example 12, 4-(4-benzylpiperazin-1-yl)-5,6-tetrahydrobenzo[b]thiophenethieno[2,3-d]pyrimidine] gave a 50% effective concentration (EC50) at human H4 above 10 µM.

For the compound `CN1CCC(N(C)c2ncnc3scc(-c4ccc(Br)cc4)c23)CC1` [Example 13, 5-(4-bromophenyl)-N-methyl-N-(1-methylpiperidin-4-yl)thieno[2,3-d]pyrimidin-4-amine], the EC50 at human H4 was above 10 µM.

Take `Clc1ccc(CCNc2ncnc3[nH]ccc23)cc1` [Example 28, N-(4-chlorophenethyl)-7H-pyrrolo[2,3-d]pyrimidin-4-amine]: the concentration for a half-maximal effect (EC50) at human H4 and at human H1 was above 10 µM in each case.

Consider `Cc1csc2ncnc(CCNc3ccc(Cl)cc3)c12` [Example 32, 4-chloro-N-(2-(5-methylthieno[2,3-d]pyrimidin-4-yl)ethyl)aniline], for which the EC50 at human H4 and on human H1 was above 10 µM throughout.

`Cc1csc2ncnc(CC(=O)Nc3ccc(Cl)cc3)c12` [Example 33, N-(4-chlorophenyl)-2-(5-methylthieno[2,3-d]pyrimidin-4-yl)acetamide]: the EC50 on human H4 and at human H1 was above 10 µM throughout.

On to `Cc1csc2ncnc(C(=O)NCc3ccc(Cl)cc3)c12` [Example 34, N-(4-chlorobenzyl)-5-methylthieno[2,3-d]pyrimidine-4-carboxamide], for which the EC50 at human H4 and on human H1 was above 10 µM in each case.

Turning to `Cc1csc2ncnc(CNCc3ccc(Cl)cc3)c12` [Example 35, N-(4-chlorobenzyl)-1-(5-methylthieno[2,3-d]pyrimidin-4-yl)methanamine], the EC50 on human H4 and at human H1 was above 10 µM each time.

On to `CNc1ncnc2scc(C)c12` [Example 49, N,5-dimethylthieno[2,3-d]pyrimidin-4-amine], for which the EC50 at human H4 and on human H1 was above 10 µM each time.

For `CCNc1ncnc2scc(C)c12` [Example 50, N-ethyl-5-methylthieno[2,3-d]pyrimidin-4-amine], the half-maximal effective concentration (EC50) on human H4 and on human H1 was above 10 µM throughout.

With `C#CCNc1ncnc2scc(C)c12` [Example 51, 5-methyl-N-(prop-2-yn-1-yl)thieno[2,3-d]pyrimidin-4-amine], the half-maximal effective concentration (EC50) on human H4 and at human H1 was above 10 µM in each case.

For `Cc1csc2ncnc(NCC#N)c12` [Example 52, 2-({5-methylthieno[2,3-d]pyrimidin-4-yl}amino)acetonitrile], the EC50 on human H4 and at human H1 was above 10 µM each time.

Turning to `Cc1csc2ncnc(NC3CC3)c12` [Example 53, N-cyclopropyl-5-methylthieno[2,3-d]pyrimidin-4-amine], the half-maximal effective concentration (EC50) on human H4 and at human H1 was above 10 µM each time.

For the compound `CCCNc1ncnc2scc(C)c12` [Example 54, 5-methyl-N-propylthieno[2,3-d]pyrimidin-4-amine], the EC50 on human H4 and at human H1 was above 10 µM throughout.

For `Cc1csc2ncnc(NCCN)c12` [Example 55, N-(2-aminoethyl)-5-methylthieno[2,3-d]pyrimidin-4-amine], the EC50 on human H4 and at human H1 was above 10 µM each time.

As for `Cc1csc2ncnc(NCCO)c12` [Example 56, 2-({5-methylthieno[2,3-d]pyrimidin-4-yl}amino)ethan-1-ol], the EC50 at human H4 and on human H1 was above 10 µM throughout.

In the case of `Cc1csc2ncnc(NCCC#N)c12` [Example 57, 3-({5-methylthieno[2,3-d]pyrimidin-4-yl}amino)propanenitrile], the EC50 at human H4 and at human H1 was above 10 µM throughout.

With `CCC(C)Nc1ncnc2scc(C)c12` (centres unmarked) [Example 60, N-(butan-2-yl)-5-methylthieno[2,3-d]pyrimidin-4-amine], the EC50 at human H4 and on human H1 was above 10 µM each time.

As for `Cc1csc2ncnc(NCC(C)C)c12` [Example 61, 5-methyl-N-(2-methylpropyl)thieno[2,3-d]pyrimidin-4-amine], the EC50 on human H4 and on human H1 was above 10 µM throughout.

With `Cc1csc2ncnc(NCCCO)c12` [Example 62, 3-({5-methylthieno[2,3-d]pyrimidin-4-yl}amino)propan-1-ol], the 50% effective concentration (EC50) at human H4 and at human H1 was above 10 µM in each case.

For `Cc1csc2ncnc(NC(C)CO)c12` (centres unmarked) [Example 63, 2-({5-methylthieno[2,3-d]pyrimidin-4-yl}amino)propan-1-ol], the concentration giving a half-maximal response (EC50) on human H4 and on human H1 was above 10 µM throughout.

Turning to `COCCNc1ncnc2scc(C)c12` [Example 64, N-(2-methoxyethyl)-5-methylthieno[2,3-d]pyrimidin-4-amine], the half-maximal effective concentration (EC50) on human H4 and at human H1 was above 10 µM each time.

With `Cc1csc2ncnc(NCCN(C)C)c12` [Example 70, dimethyl[2-({5-methylthieno[2,3-d]pyrimidin-4-yl}amino)ethyl]amine], the EC50 on human H4 and at human H1 was above 10 µM each time.

`Cc1csc2ncnc(N3CCC(N(C)C)C3)c12` (centres unmarked) [Example 202, N,N-dimethyl-1-{5-methylthieno[2,3-d]pyrimidin-4-yl}pyrrolidin-3-amine] showed a concentration for a half-maximal effect (EC50) at human H4 above 10 µM.

In turn, `Cc1csc2ncnc(N(C)CCc3ccccn3)c12` [Example 220, N,5-dimethyl-N-[2-(pyridin-2-yl)ethyl]thieno[2,3-d]pyrimidin-4-amine] showed an EC50 at human H4 above 10 µM.

Consider `Cc1csc2ncnc(N3CCN(c4ccc(C#N)cn4)CC3)c12` [Example 253, 6-(4-{5-methylthieno[2,3-d]pyrimidin-4-yl}piperazin-1-yl)pyridine-3-carbonitrile], for which the EC50 at human H4 was above 10 µM.

At human H4, `Cc1ccc(C)c(N2CCN(c3ncnc4scc(C)c34)CC2)c1` [Example 259, 1-(2,5-dimethylphenyl)-4-{5-methylthieno[2,3-d]pyrimidin-4-yl}piperazine] showed an EC50 above 10 µM.

`Cc1csc2ncnc(N3CCN(c4ccc(Cl)cc4)CC3)c12` [Example 266, 1-(4-chlorophenyl)-4-{5-methylthieno[2,3-d]pyrimidin-4-yl}piperazine]: at human H4, the EC50 is above 10 µM.

As to `CC(C)(CNc1ncnc2sccc12)N1CCOCC1` [Example 308, N-(2-methyl-2-morpholinopropyl)thieno[2,3-d]pyrimidin-4-amine], at human H1, the EC50 was above 10 µM.

On to `c1nc(NCc2ccc(CN3CCOCC3)cc2)c2c3c(sc2n1)CCC3` [Example 309], for which the EC50 on human H1 was above 10 µM.

In the case of `Cc1sc2ncnc(N3CCN(S(=O)(=O)c4ccc(C(C)(C)C)cc4)CC3)c2c1C` [Example 310, 4-(4-(4-tert-butylphenylsulfonyl)piperazin-1-yl)-5,6-dimethylthieno[2,3-d]pyrimidine], the EC50 on human H1 is above 10 µM.

Turning to `CC(Nc1ncnc2sccc12)c1ccccc1` (centres unmarked) [Example 311, N-(1-phenylethyl)thieno[2,3-d]pyrimidin-4-amine], the half-maximal effective concentration (EC50) on human H1 was above 10 µM.

`OCCCCNc1ncnc2scc(-c3ccccc3)c12` [Example 312, 4-(5-phenylthieno[2,3-d]pyrimidin-4-ylamino)butan-1-ol]: the concentration for a half-maximal effect (EC50) on human H1 is above 10 µM.

As for `Clc1ccc(CCNc2ncnc3sc4c(c23)CCCC4)c(Cl)c1` [Example 313], the EC50 on human H1 was above 10 µM.
